A short description of data set [1]: Cmax in rat at 2 mg/kg, iv. In kind it is ADME, organism-based. Set-up: dose 2 mg/kg, route intravenous. Particulars: in vivo.
Data set [2] is described as follows: AUC (0 to infinity) in rat at 2 mg/kg, iv. In kind it is ADME, organism-based. Details: time infinity, dose 2 mg/kg, route intravenous. The conditions noted are these: plasma.
Data set [3] can be described thus: Clearance in rat at 2 mg/kg, iv. In kind it is ADME, organism-based. Details: dose 2 mg/kg, route intravenous. Particulars: in vivo.
Data set [4] can be described thus: Volume of distribution at steady state in rat at 2 mg/kg, iv. In kind it is ADME, organism-based. Set-up: dose 2 mg/kg, route intravenous. Particulars: in vivo, read-out: Vdss.
The nature of data set [5]: Half life in rat plasma at 2 mg/kg, iv. In kind it is ADME, organism-based. Details: dose 2 mg/kg, route intravenous.
Data set [6] is described as follows: Tmax in rat at 10 mg/kg, po. In kind it is ADME, organism-based. Details: dose 10 mg/kg, route oral. The conditions noted are these: in vivo.
Data set [7] can be described thus: Cmax in rat at 10 mg/kg, po. In kind it is ADME, organism-based. Details: dose 10 mg/kg, route oral. Particulars: in vivo.
Data set [8] in a line: AUC (0 to infinity) in rat at 10 mg/kg, po. It is filed as ADME, organism-based. Details: time infinity, dose 10 mg/kg, route oral. The conditions noted are these: plasma.
Data set [9] in a line: Terminal elimination half life in rat plasma at 10 mg/kg, po. In kind it is ADME, organism-based. Set-up: dose 10 mg/kg, route oral.
Data set [10] can be described thus: Bioavailability in rat at 10 mg/kg, po. In kind it is ADME, organism-based. The conditions noted are these: in vivo.
Data set [11] is described as follows: Cmax in Beagle dog at 2 mg/kg, iv. It is filed as ADME, organism-based, Canis lupus familiaris. Details: dose 2 mg/kg, route intravenous. The conditions noted are these: in vivo.
The nature of data set [12]: AUC (0 to infinity) in Beagle dog at 2 mg/kg, iv. Set-up: time infinity, dose 2 mg/kg, route intravenous. The conditions noted are these: plasma. In kind it is ADME, organism-based, Canis lupus familiaris.
The nature of data set [13]: Clearance in Beagle dog at 2 mg/kg, iv. In kind it is ADME, organism-based, Canis lupus familiaris. Set-up: dose 2 mg/kg, route intravenous. The conditions noted are these: in vivo.
The nature of data set [14]: Volume of distribution at steady state in Beagle dog at 2 mg/kg, iv. It is filed as ADME, organism-based, Canis lupus familiaris. Details: dose 2 mg/kg, route intravenous. Particulars: in vivo, read-out: Vdss.
Data set [15] can be described thus: Half life in Beagle dog plasma at 2 mg/kg, iv. In kind it is ADME, organism-based, Canis lupus familiaris. Details: dose 2 mg/kg, route intravenous.
The nature of data set [16]: Tmax in Beagle dog at 10 mg/kg, po. It is filed as ADME, organism-based, Canis lupus familiaris. Details: dose 10 mg/kg, route oral. Particulars: in vivo.
The nature of data set [17]: Cmax in Beagle dog at 10 mg/kg, po. It is filed as ADME, organism-based, Canis lupus familiaris. Set-up: dose 10 mg/kg, route oral. The conditions noted are these: in vivo.
Data set [18] in a line: AUC (0 to infinity) in Beagle dog at 10 mg/kg, po. It is filed as ADME, organism-based, Canis lupus familiaris. Details: time infinity, dose 10 mg/kg, route oral. Particulars: plasma.
The nature of data set [19]: Half life in Beagle dog plasma at 10 mg/kg, po. In kind it is ADME, organism-based, Canis lupus familiaris. Details: dose 10 mg/kg, route oral.
Data set [20] in a line: Bioavailability in Beagle dog at 10 mg/kg, po. Particulars: in vivo. It is filed as ADME, organism-based, Canis lupus familiaris.
A short description of data set [21]: Solubility at pH 7.4. It is filed as physicochemical. Particulars: buffer.
A short description of data set [22]: Chemical stability assessed as half life of hydrolysis at pH 2. In kind it is physicochemical. The conditions noted are these: buffer.
Data set [23] in a line: Chemical stability assessed as half life of hydrolysis at pH 7.4. In kind it is physicochemical. The conditions noted are these: buffer.
A short description of data set [24]: Cmax in rat at 3 mg/kg, iv. It is filed as ADME, organism-based. Details: dose 3 mg/kg, route intravenous. Particulars: in vivo.
Data set [25] is described as follows: AUC (0 to infinity) in rat at 3 mg/kg, iv. In kind it is ADME, organism-based. Set-up: time infinity, dose 3 mg/kg, route intravenous. The conditions noted are these: plasma.
A short description of data set [26]: Clearance in rat at 3 mg/kg, iv. In kind it is ADME, organism-based. The conditions noted are these: in vivo. Set-up: dose 3 mg/kg, route intravenous.
Data set [27] in a line: Volume of distribution at steady state in rat at 3 mg/kg, iv. It is filed as ADME, organism-based. Set-up: dose 3 mg/kg, route intravenous. Particulars: in vivo, read-out: Vdss.
Data set [28] in a line: Half life in rat plasma at 3 mg/kg, iv. Set-up: dose 3 mg/kg, route intravenous. In kind it is ADME, organism-based.
Data set [29] is described as follows: Tmax in rat at 30 mg/kg, po. In kind it is ADME, organism-based. Details: dose 30 mg/kg, route oral. Particulars: in vivo.
A short description of data set [30]: Cmax in rat at 30 mg/kg, po. Particulars: in vivo. It is filed as ADME, organism-based. Set-up: dose 30 mg/kg, route oral.
The nature of data set [31]: AUC (0 to infinity) in rat at 30 mg/kg, po. Particulars: plasma. Set-up: time infinity, dose 30 mg/kg, route oral. It is filed as ADME, organism-based.
A short description of data set [32]: Terminal elimination half life in rat plasma at 30 mg/kg, po. Set-up: dose 30 mg/kg, route oral. It is filed as ADME, organism-based.
Data set [33] in a line: Bioavailability in rat at 30 mg/kg, po. It is filed as ADME, organism-based. Particulars: in vivo.
Data set [34] is described as follows: Cmax in Beagle dog at 3 mg/kg, iv. In kind it is ADME, organism-based, Canis lupus familiaris. Details: dose 3 mg/kg, route intravenous. The conditions noted are these: in vivo.
Data set [35] in a line: AUC (0 to infinity) in Beagle dog at 3 mg/kg, iv. In kind it is ADME, organism-based, Canis lupus familiaris. Details: time infinity, dose 3 mg/kg, route intravenous. The conditions noted are these: plasma.
Data set [36] can be described thus: Clearance in Beagle dog at 3 mg/kg, iv. In kind it is ADME, organism-based, Canis lupus familiaris. Details: dose 3 mg/kg, route intravenous. Particulars: in vivo.
Data set [37] is described as follows: Volume of distribution at steady state in Beagle dog at 3 mg/kg, iv. It is filed as ADME, organism-based, Canis lupus familiaris. Set-up: dose 3 mg/kg, route intravenous. The conditions noted are these: in vivo, read-out: Vdss.
A short description of data set [38]: Half life in Beagle dog plasma at 3 mg/kg, iv. In kind it is ADME, organism-based, Canis lupus familiaris. Details: dose 3 mg/kg, route intravenous.
Data set [39] can be described thus: Tmax in Beagle dog at 30 mg/kg, po. In kind it is ADME, organism-based, Canis lupus familiaris. Set-up: dose 30 mg/kg, route oral. The conditions noted are these: in vivo.
Data set [40] can be described thus: Cmax in Beagle dog at 30 mg/kg, po. It is filed as ADME, organism-based, Canis lupus familiaris. Details: dose 30 mg/kg, route oral. Particulars: in vivo.
The nature of data set [41]: AUC (0 to infinity) in Beagle dog at 30 mg/kg, po. In kind it is ADME, organism-based, Canis lupus familiaris. Details: time infinity, dose 30 mg/kg, route oral. The conditions noted are these: plasma.
Data set [42] is described as follows: Half life in Beagle dog plasma at 30 mg/kg, po. In kind it is ADME, organism-based, Canis lupus familiaris. Set-up: dose 30 mg/kg, route oral.
Data set [43] can be described thus: Bioavailability in Beagle dog at 30 mg/kg, po. In kind it is ADME, organism-based, Canis lupus familiaris. The conditions noted are these: in vivo.
Data set [44] can be described thus: Metabolic stability in human liver microsomes assessed as elimination half life. In kind it is ADME, Microsome. For orientation: Liver microsomes are vesicles of endoplasmic reticulum, rich in cytochrome P450 enzymes.
The nature of data set [45]: Metabolic stability in rat liver S9 fraction assessed as elimination half life. It is filed as ADME, subcellular.
Data set [46] in a line: Metabolic stability in mouse liver S9 fraction assessed as elimination half life. In kind it is ADME, subcellular.
A short description of data set [47]: Metabolic stability in dog liver S9 fraction assessed as elimination half life. In kind it is ADME, subcellular, Canis lupus familiaris.

One may read the Cmax as the maximum level reached in the sampled fluid or tissue. What is called AUC(0-inf) is total exposure, with the tail of the curve extrapolated. A high value points to more exposure. By clearance is commonly meant the volume of plasma or blood freed of the substance per unit of time. The term half-life denotes the time needed for the level to fall by half in the phase considered. The term Tmax denotes the time from dosing to the highest level. By solubility is commonly meant how much of the substance goes into solution per volume. A high value points to much dissolved substance.

Converted amounts (≈) assume the structure as drawn.

For the compound `O=C(CO)NC1CCN(Cc2ccc(Oc3nc4ccccc4s3)cc2)CC1`, the peak concentration (Cmax) is 2200 nM in [1], 2200 nM in data set [7], 2800 nM in [11] and 26000 nM in data set [17]. Further, the area under the curve AUC(0-inf) in data set [2] came to 10 µM·h; in data set [8], 33 µM·h; in data set [12], 8 µM·h; in [18] it was 60.3 µM·h. For the same compound, the clearance is 3 mL/min in data set [3] and 93.3 mL/min in data set [13]. For the same compound, the results for the Vd in data set [4] and in data set [14] were 2.5 L/kg and 3.2 L/kg, respectively. In addition, the half-life was 3.5 h in [5], 5.6 h in [9], 3.6 h in [15] and 6.9 h in [19]. In addition, the figures for the Tmax in data set [6] and in data set [16] were 5.3 h and 1 h, respectively. In addition, the bioavailability amounted to 65% in data set [10] and 150% in data set [20].

As to `c1ccc2oc(Oc3ccc(OCCN4CCCCC4)cc3)nc2c1`, in [21], the concentration in solution (solubility) came to 160 µg/mL (≈ 473 µM). The half-life in data set [22] was 1.5 h; in data set [23], more than 16.7 h; in data set [28] it was 2.6 h; in data set [32] it was 5.2 h; in data set [38], 1 h; in data set [42], 2.3 h. For the same compound, the half-life was more than 1.67 h in [44], more than 1.67 h in [45], 0.667 h in [46] and 0.9 h in data set [47]. The Cmax in [24] stood at 3800 nM; in data set [30], 1100 nM; in data set [34], 4500 nM; in [40] it was 1200 nM. The area under the curve AUC(0-inf) is 4.8 µM·h in data set [25], 15 µM·h in data set [31], 3.9 µM·h in data set [35] and 4.2 µM·h in [41]. Further, the clearance is 9.5 mL/min in data set [26] and 13 mL/min in data set [36]. Further, the Vd is 7 L/kg in data set [27] and 3.2 L/kg in data set [37]. For the same compound, the Tmax in data set [29] was 4.6 h; in [39], 2.3 h. Moreover, the bioavailability in data set [33] amounted to 31%; in [43] it was 11%.

The values are drawn from ChEMBL document CHEMBL1155111, “Identification of a potent, selective, and orally active leukotriene a4 hydrolase inhibitor with anti-inflammatory activity” (J Med Chem, 2008).
